# According to patent US12215129B2, “Antibacterial cyclopeptides targeting acinetobacter and other gram-negative pathogens” (priority 2020, dated 2025):
# Starred links: 1 amine or outer side, 2 acyl side, 3 side chain; linkers in the order of their positions; H or OH if unused. Positions of bridges follow the written chain, without caps; N, C: chain ends. Non-standard residues stand in square brackets, D forms with d. Residues, ends and D or L forms follow the SMILES beside them. *: point of attachment. dAsp(3R-OH) = N[C@@H](C(=O)O)[C@@H](O)C(=O)O; X1 = NC[C@H](O)[C@@H](N[*:1])C(=O)[*:2]; X2 = CCC(C)(O)[C@H](N[*:1])C(=O)[*:2]; d(aIle) = CC[C@H](C)[C@@H](N)C(=O)O; Myristoyl = CCCCCCCCCCCCCC(=O)*; dOrn = NCCC[C@@H](N)C(=O)O; hSer = N[C@@H](CCO)C(=O)O
# How the values were obtained:
# [1] = mouse, in vivo
# [2] = in vivo; conditions: female, BALB/c, mouse
# [3] = iv, 5 mg/kg, Mean plasma concentration
smiles,measurement,setting,value
"CCCCCCCCCCCCCC(=O)N[C@H](CCCN)C(=O)N[C@@H](CO)C(=O)N[C@H](C(=O)N[C@@H](C(=O)N[C@@H](C(=O)N[C@@H]1C(=O)NCC(=O)N[C@@H](C(C)(O)CC)C(=O)N[C@H]([C@@H](C)CC)C(=O)N[C@@H](CCO)C(=O)N[C@@H](C)C(=O)N[C@H]([C@@H](C)CC)C(=O)N[C@@H](CCC(=O)O)C(=O)O[C@@H]1C)[C@@H](O)CN)[C@@H](O)C(=O)O)C(C)C (stereo partly drawn) [Compound 1, Turnercyclamycin A] (Myristoyl-[dOrn]SV[dAsp(3R-OH)][X1]TG[X2][d(aIle)][hSer]A[d(aIle)]E; ester 6-C)",B.W. (g),[1],−
same,Body Temperature,[1],−
same,Convulsion,[1],−
same,Convulsion C.T.C-T,[1],−
same,Dec. Exploration,[1],−
same,Dec. Palpebral,[1],−
same,Dec. Palpebral Size,[1],−
same,Dec. Startle,[1],−
same,Dec. Startle Response,[1],−
same,Dec. Touch,[1],−
same,Dec. Touch Response,[1],−
same,Diarrhea,[1],−
same,Grip Strength,[1],−
same,Hyperactivity,[1],−
same,Inc. Exploration,[1],−
same,Inc. Palpebral Size,[1],−
same,Inc. Startle,[1],−
same,Lacrimation,[1],−
same,Limb Tone,[1],+
same,Piloerection,[1],±
same,Pinna,[1],−
same,Placing,[1],−
same,Righting,[1],−
same,Salivation F.V.,[1],−
same,Skin Color,[1],−
same,Straub Tail,[1],−
same,adverse effects noted after the two administrations,[1],"decrease in adnominal tone, limb tone, and spontaneous activity, and tremor, piloerection, and increase in the respiration rate (fast)"
same,dose up to which well tolerated in mice,[1],up to 50 mg/kg
same,more pronounced adverse effects elicited,[1],"vocalization, ataxia, reactivity, and hunch back"
same,clearance,[2],0.29 mL/min/kg
same,AUC(0-inf),"[2]; iv, 5 mg/kg",290 µg·h/mL
same,AUC(0-t),"[2]; iv, 5 mg/kg",285 µg·h/mL
same,C0,"[2]; iv, 5 mg/kg",33700 ng/mL
same,MRT,"[2]; iv, 5 mg/kg",5.83 h
same,Vd,"[2]; iv, 5 mg/kg",0.1 L/kg
same,clearance,"[2]; iv, 5 mg/kg",0.29 mL/min/kg
same,half-life,"[2]; iv, 5 mg/kg",4.35 h
same,level at 0.05 h,[2]; [3],53300 ng/mL
same,level at 0.167 h,[2]; [3],38600 ng/mL
same,level at 0.5 h,[2]; [3],33700 ng/mL
same,level at 1 h,[2]; [3],29300 ng/mL
same,level at 2 h,[2]; [3],26200 ng/mL
same,level at 4 h,[2]; [3],22500 ng/mL
same,level at 8 h,[2]; [3],12000 ng/mL
same,level at 24 h,[2]; [3],931 ng/mL
same,level at 0.5 h,"[2]; iv, 5 mg/kg, Sample concentration in plasma (individual mouse)",34400 ng/mL
